Earlier results, collected in patent US20140221306A1 (Santen Pharmaceutical Co. Ltd, priority 2010, published 2014).

How the values were obtained:
dry eye patients = conditions: instillation of an ophthalmic solution; Cornea, 23(8), 784-792 (2004)
[1] = disclosed in Japanese Patent No. 3652707 (PTD 1)

Structure (SMILES)	corneal epithelium disorder of dry eye patients (dry eye patients)	effect on secretion of tears [1]
O=c1ccn([C@@H]2O[C@H](COP(=O)([O-])OP(=O)([O-])OP(=O)([O-])OP(=O)([O-])OC[C@H]3O[C@@H](n4ccc(=O)[nH]c4=O)[C@H](O)[C@@H]3O)[C@@H](O)[C@H]2O)c(=O)[nH]1.[Na+].[Na+].[Na+].[Na+] [diquafosol tetrasodium salt]	improved corneal epithelium disorder	
O=c1ccn([C@@H]2O[C@H](COP(=O)(O)OP(=O)(O)OP(=O)(O)OP(=O)(O)OC[C@H]3O[C@@H](n4ccc(=O)[nH]c4=O)C(O)C3O)C(O)C2O)c(=O)[nH]1 (some centres unmarked) [Diquafosol, P^1,P^4-di(uridine-5′)tetraphosphate]		effect of stimulating secretion of tears
